Where two headings read alike, the source gives them in different places.
What was measured:
[1] = test system: Mycosphaerella graminicola; Anamorph: Septoria tritici; Bayer Code SEPTTR; test: Evaluation of fungicidal activity: leaf blotch of wheat (SEPTTR), wheat plants variety Yuma; type: in vivo; details: Zymoseptoria tritici
Experimental: Evaluation of Fungicidal Activity: Leaf Blotch of Wheat (Mycosphaerella graminicola; Anamorph: Septoria tritici; Bayer Code […]) Wheat plants (variety Yuma) were grown from seed in a greenhouse in 50% mineral soil/50% soil-less Metro mix until the first leaf was fully emerged, with 7-10 seedlings per pot. These plants were inoculated with an aqueous spore suspension of Septoria tritici either prior to or after fungicide treatments. After inoculation the plants were kept in 100% relative humidity (one day in a dark dew chamber followed by two to three days in a lighted dew chamber) to permit spores to germinate and infect the leaf. The plants were then transferred to a greenhouse for disease to develop. The following table presents the activity of typical compounds of the present disclosure when evaluated in these experiments. The effectiveness of the test compounds in controlling disease was determined by assessing the severity of disease on treated plants, then converting the severity to percent control based on the level of disease on untreated, inoculated plants. • In each case of Table II the rating scale is as follows: […]

[2] = 24 h, One-Day Protectant (1DP), 100 ppm, wheat plants, percent control vs untreated inoculated plants, read-out: SEPTTR 100 PPM 1DP (% Disease Control rating)
[3] = 72 h, Three-Day Curative (3DC), 100 ppm, wheat plants, percent control vs untreated inoculated plants, read-out: SEPTTR 100 PPM 3DC (% Disease Control rating)

For `CCCNC(=O)n1cc(F)c(/N=C/N(C)C)nc1=O` [Compound 1, 4-(dimethylamino-methyleneamino)-5-fluoro-2-oxo-2H-pyrimidine-1-carboxylic acid propylamide], the melting point was 266 to 268 °C, the pest or weed control at 100 ppm [1, 2] was 76 to 100% and the pest or weed control at 100 ppm [1, 3] was 76 to 100%.

For `CCOC(=O)CCNC(=O)n1cc(F)c(/N=C/N(C)C)nc1=O` [Compound 2], the melting point was 232 to 236 °C, the pest or weed control at 100 ppm [1, 2] was 76 to 100% and the pest or weed control at 100 ppm [1, 3] was 76 to 100%.

For `CN(C)/C=N/c1nc(=O)n(C(=O)NCc2ccccc2)cc1F` [Compound 3, (E)-N-benzyl-4-((dimethylamino)methyleneamino)-5-fluoro-2-oxopyrimidine-1(2H)-carboxamide], the melting point was 147 to 150 °C, the pest or weed control at 100 ppm [1, 2] was 76 to 100% and the pest or weed control at 100 ppm [1, 3] was 76 to 100%.

With `CCCCCNC(=O)n1cc(F)c(N)nc1=O` [Compound 4, 4-amino-5-fluoro-2-oxo-N-pentylpyrimidine-1(2H)-carboxamide] the melting point was 289 to 292 °C, the pest or weed control at 100 ppm [1, 2] was 76 to 100% and the pest or weed control at 100 ppm [1, 3] was 76 to 100%.

Work on `Nc1nc(=O)n(C(=O)NC2CCCC2)cc1F` [Compound 5, 4-amino-N-cyclopentyl-5-fluoro-2-oxopyrimidine-1(2H)-carboxamide] yielded a melting point of 294 to 297 °C, a pest or weed control at 100 ppm [1, 2] of 76 to 100% and a pest or weed control at 100 ppm [1, 3] of 76 to 100%.

In the case of `Nc1nc(=O)n(C(=O)Nc2ccccc2)cc1F` [Compound 6, 4-amino-5-fluoro-2-oxo-N-phenylpyrimidine-1(2H)-carboxamide], the melting point is reported as 275 to 277 °C (dec.), the pest or weed control at 100 ppm ([1]; 24 h, read-out: SEPTTR 100 PPM 1DP (% Disease Control rating)) is reported as 76 to 100% and the pest or weed control at 100 ppm ([1]; 72 h, read-out: SEPTTR 100 PPM 3DC (% Disease Control rating)) is reported as 76 to 100%.

For `COc1ccccc1NC(=O)n1cc(F)c(N)nc1=O` [Compound 7], the melting point was 277 to 280 °C (dec.), the pest or weed control at 100 ppm [1, 2] was 76 to 100% and the pest or weed control at 100 ppm [1, 3] was 76 to 100%.

For `Nc1nc(=O)n(C(=O)Nc2ccccc2Cl)cc1F` [Compound 8], the melting point was 258 to 261 °C, the pest or weed control at 100 ppm [1, 2] was 76 to 100% and the pest or weed control at 100 ppm [1, 3] was 76 to 100%.

With `Cc1ccccc1NC(=O)n1cc(F)c(N)nc1=O` [Compound 9] the melting point was 277 to 280 °C (dec.), the pest or weed control at 100 ppm [1, 2] was 76 to 100% and the pest or weed control at 100 ppm [1, 3] was 76 to 100%.

Compound `COc1ccc(NC(=O)n2cc(F)c(N)nc2=O)cc1` [Compound 10] has a melting point of 252 to 255 °C, a pest or weed control at 100 ppm [1, 2] of 76 to 100% and a pest or weed control at 100 ppm [1, 3] of 76 to 100%.

`Nc1nc(=O)n(C(=O)Nc2ccc(F)c(Cl)c2)cc1F` [Compound 11] showed a melting point of 251 to 254 °C, a pest or weed control at 100 ppm [1, 2] of 76 to 100% and a pest or weed control at 100 ppm [1, 3] of 26 to 50%.

For `Nc1nc(=O)n(C(=O)Nc2ccc(Cl)cc2)cc1F` [Compound 12], the melting point was 261 to 264 °C, the pest or weed control at 100 ppm [1, 2] was 76 to 100% and the pest or weed control at 100 ppm [1, 3] was 76 to 100%.

Work on `N#Cc1ccc(NC(=O)n2cc(F)c(N)nc2=O)cc1` [Compound 13] yielded a melting point of 254 to 257 °C, a pest or weed control at 100 ppm [1, 2] of 76 to 100% and a pest or weed control at 100 ppm [1, 3] of 51 to 75%.

Work on `Nc1nc(=O)n(C(=O)Nc2cccc(Cl)c2)cc1F` [Compound 14, 4-amino-N-(3-chlorophenyl)-5-fluoro-2-oxopyrimidine-1(2H)-carboxamide] yielded a melting point of 250 to 252 °C, a pest or weed control at 100 ppm [1, 2] of 76 to 100% and a pest or weed control at 100 ppm [1, 3] of 76 to 100%.

In the case of `Cc1ccc(NC(=O)n2cc(F)c(N)nc2=O)cc1` [Compound 15], the melting point is reported as 257 to 260 °C, the pest or weed control at 100 ppm [1, 2] is reported as 76 to 100% and the pest or weed control at 100 ppm [1, 3] is reported as 76 to 100%.

With `COc1cccc(NC(=O)n2cc(F)c(N)nc2=O)c1` [Compound 16] the melting point was 242 to 244 °C, the pest or weed control at 100 ppm [1, 2] was 76 to 100% and the pest or weed control at 100 ppm [1, 3] was 76 to 100%.

With `Nc1nc(=O)n(C(=O)Nc2ccc3ccccc3c2)cc1F` [Compound 17] the melting point was 273 to 275 °C, the pest or weed control at 100 ppm [1, 2] was 76 to 100% and the pest or weed control at 100 ppm [1, 3] was 76 to 100%.

With `Cn1ccc2cc(NC(=O)n3cc(F)c(N)nc3=O)ccc21` [Compound 18] the melting point was 268 to 270 °C, the pest or weed control at 100 ppm [1, 2] was 76 to 100% and the pest or weed control at 100 ppm [1, 3] was 76 to 100%.

From patent publication US9000002B2, “N1-substituted-5-fluoro-2-oxopyrimidinone-1(2H)-carboxamide derivatives” (Dow Agrosciences LLC, priority 2009, dated 2015)
